Literature values as cited in US6632921B1, “Seryl-lysyl-based peptide and peptidomimetic inhibitors of N-myristoyl transferase as anti-infective agents” (G. D Searle & Co, priority 1995, dated 2003).

Tested on: HIV-1
Details: acutely and chronically infected human T-lymphocyte cell lines, doses which do not cause cellular toxicity; cited from earlier work

COCCCCCCCCCCCC(=O)O [13-oxatetradecanoic acid]
inhibition of HIV-1 replication: inhibits HIV-1 replication
